# Test results reported in patent US11530219B2, “Ligands to cereblon (CRBN)” (DANA-FARBER CANCER INSTITUTE, INC., priority 2018, dated 2022).
# Entries after “also recorded” stand apart in the source; their conditions may differ.
# Biological target: CRBN (Homo sapiens (Human), UniProt Q96SW2)
# Test: Cellular CRBN dBET6 displacement assay (BRD4BD2-GFP/mCherry reporter cells)
# Format: cell-based
# Details: Flip-In 293 cells stably expressing BRD4BD2-GFP, 100 nM dBET6, 5 hours
# Experimental: BRD4BD2 were subcloned into mammalian pcDNA5/FRT Vector (Ampicillin and Hygromycin B resistant) modified to contain MCS-eGFP-P2A-mCherry. […] Following a 2-3 passage cycle, FACS (FACSAria™ II, BD) was used to enrich for cells expressing eGFP and mCherry.
# Signal from minimal 3000 events per well was acquired and the eGFP and mCherry florescence monitored. Data was analyzed using FlowJo® (FlowJo®, LCC). […] The eGFP protein abundance relative to mCherry was then quantified as a ten-fold amplified ratio for each individual cell using the formula: 10×eGFP/mCherry. The median of the ratio was then calculated per set, normalized to the median of the DMSO ratio.
# This assay provided a readout of cellular CRBN binding impacted by the permeability of the molecule tested.
# CRBN, sequence (Q96SW2 whole entry): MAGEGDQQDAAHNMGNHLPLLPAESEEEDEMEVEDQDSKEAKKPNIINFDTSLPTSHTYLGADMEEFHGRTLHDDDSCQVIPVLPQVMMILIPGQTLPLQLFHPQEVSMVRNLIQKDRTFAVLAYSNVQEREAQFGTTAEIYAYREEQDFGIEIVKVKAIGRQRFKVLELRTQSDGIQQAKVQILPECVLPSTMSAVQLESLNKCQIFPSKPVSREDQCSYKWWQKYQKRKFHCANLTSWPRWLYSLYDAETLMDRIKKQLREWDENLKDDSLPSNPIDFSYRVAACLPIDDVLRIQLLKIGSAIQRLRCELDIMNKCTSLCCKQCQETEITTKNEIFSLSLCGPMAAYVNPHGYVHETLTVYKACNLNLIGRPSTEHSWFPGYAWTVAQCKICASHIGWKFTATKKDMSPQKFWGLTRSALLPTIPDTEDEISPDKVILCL
row,Cellular CRBN-BRD4 dBET6 displacement EC50,SMILES
1,inactive; also recorded: Not binding,"COc1cc(F)ccc1-c1nccc(NCC(=O)Nc2cccc3c2CN(C2CCC(=O)NC2=O)C3=O)n1 (centres unmarked) [Compound 34, N-(2-(2,6-dioxopiperidin-3-yl)-1-oxoisoindolin-4-yl)-2-((2-(4-fluoro-2-methoxyphenyl)pyrimidin-4-yl)amino)acetamide]"
2,inactive; also recorded: Not binding,"O=C1CCC(N2Cc3c(Nc4ccnc(NCCCN5CCCC5=O)n4)cccc3C2=O)C(=O)N1 (centres unmarked) [Compound 22, 3-(1-oxo-4-((2-((3-(2-oxopyrrolidin-1-yl)propyl)amino)pyrimidin-4-yl)amino)isoindolin-2-yl)piperidine-2,6-dione]"
3,inactive; also recorded: Not binding,"NS(=O)(=O)c1ccc(Nc2nccc(Nc3cccc4c3CN(C3CCC(=O)NC3=O)C4=O)n2)cc1 (centres unmarked) [Compound 40, 4-((4-((2-(2,6-dioxopiperidin-3-yl)-1-oxoisoindolin-4-yl)amino)pyrimidin-2-yl)amino)benzenesulfonamide]"

# Same assay, conditions: Flip-In 293 cells stably expressing BRD4BD2-GFP, 100 nM dBET6, 5 hours; read-out: Cellular CRBN-BRD4 dBET6 displacement EC50
row,EC50,SMILES
1,3.25 µM,"Cc1cc(C)c(Nc2nccc(Nc3cccc4c3CN(C3CCC(=O)NC3=O)C4=O)n2)c(C)c1 (centres unmarked) [Compound 28, 3-(4-((2-(mesitylamino)pyrimidin-4-yl)amino)-1-oxoisoindolin-2-yl)piperidine-2,6-dione]"
2,2.06 µM,"O=C1CCC(N2Cc3c(Nc4ccnc(Nc5ccc6ccccc6c5)n4)cccc3C2=O)C(=O)N1 (centres unmarked) [Compound 45, 3-(4-((2-(naphthalen-2-ylamino)pyrimidin-4-yl)amino)-1-oxoisoindolin-2-yl)piperidine-2,6-dione]"
3,9.74 µM,"CC(C)C(CO)Nc1nccc(Nc2cccc3c2CN(C2CCC(=O)NC2=O)C3=O)n1 [Compound 37, 3-(4-((2-(((R)-1-hydroxy-3-methylbutan-2-yl)amino)pyrimidin-4-yl)amino)-1-oxoisoindolin-2-yl)piperidine-2,6-dione]"
4,12.4 µM,"COc1cc(F)ccc1-c1nc(Nc2cccc3c2CN(C2CCC(=O)NC2=O)C3=O)c2nc[nH]c2n1 (centres unmarked) [Compound 49, 3-(4-((2-(4-fluoro-2-methoxyphenyl)-9H-purin-6-yl)amino)-1-oxoisoindolin-2-yl)piperidine-2,6-dione]"
5,1.26 µM,"CC(=O)c1ccc(-c2nccc(Nc3cccc4c3CN(C3CCC(=O)NC3=O)C4=O)n2)cc1 (centres unmarked) [Compound 20, 3-(4-((2-(4-acetylphenyl)pyrimidin-4-yl)amino)-1-oxoisoindolin-2-yl)piperidine-2,6-dione]"
6,2.24 µM,"O=C1CCC(N2Cc3c(Nc4ccnc(-c5cc6ccccc6o5)n4)cccc3C2=O)C(=O)N1 (centres unmarked) [Compound 36, 3-(4-((2-(benzofuran-2-yl)pyrimidin-4-yl)amino)-1-oxoisoindolin-2-yl)piperidine-2,6-dione]"
7,8.15 µM,"O=C1CCC(N2Cc3c(Nc4ccnc(N5CCC[C@@H]5CO)n4)cccc3C2=O)C(=O)N1 (stereo partly drawn) [Compound 30, 3-(4-((2-((R)-2-(hydroxymethyl)pyrrolidin-1-yl)pyrimidin-4-yl)amino)-1-oxoisoindolin-2-yl)piperidine-2,6-dione]"
8,8.66 µM,"O=C1CCC(N2Cc3c(Nc4ccnc(-c5ccc(-c6ccccc6)cc5)n4)cccc3C2=O)C(=O)N1 (centres unmarked) [Compound 31, 3-(4-((2-([1,1′-biphenyl]-4-yl)pyrimidin-4-yl)amino)-1-oxoisoindolin-2-yl)piperidine-2,6-dione]"
9,3.63 µM,"O=C1CCC(N2Cc3c(Nc4ccnc(Nc5ccc6c(c5)OCCO6)n4)cccc3C2=O)C(=O)N1 (centres unmarked) [Compound 19, 3-(4-((2-((2,3-dihydrobenzo[b][1,4]dioxin-6-yl)amino)pyrimidin-4-yl)amino)-1-oxoisoindolin-2-yl)piperidine-2,6-dione]"
10,6.83 µM,"COc1cc(OC)cc(-c2nc(Nc3cccc4c3CN(C3CCC(=O)NC3=O)C4=O)c3nc[nH]c3n2)c1 (centres unmarked) [Compound 51, 3-(4-((2-(3,5-dimethoxyphenyl)-9H-purin-6-yl)amino)-1-oxoisoindolin-2-yl)piperidine-2,6-dione]"
11,1.13 µM,"O=C1CCC(N2Cc3c(Nc4ccnc(Nc5ccc6c(c5)-c5ccccc5C6)n4)cccc3C2=O)C(=O)N1 (centres unmarked) [Compound 46, 3-(4-((2-((9H-fluoren-3-yl)amino)pyrimidin-4-yl)amino)-1-oxoisoindolin-2-yl)piperidine-2,6-dione]"
12,12.4 µM,"O=C1CCC(N2Cc3c(Nc4nc(-c5ccc(-c6ccccc6)cc5)nc5[nH]cnc45)cccc3C2=O)C(=O)N1 (centres unmarked) [Compound 48, 3-(4-((2-([1,1′-biphenyl]-4-yl)-9H-purin-6-yl)amino)-1-oxoisoindolin-2-yl)piperidine-2,6-dione]"
13,2.59 µM,"COc1cc(F)ccc1-c1nccc(Nc2cccc3c2CN(C2CCC(=O)NC2=O)C3=O)n1 (centres unmarked) [Compound 33, 3-(4-((2-(4-fluoro-2-methoxyphenyl)pyrimidin-4-yl)amino)-1-oxoisoindolin-2-yl)piperidine-2,6-dione]"
14,1.25 µM,"CN(c1ccccc1)c1nccc(Nc2cccc3c2CN(C2CCC(=O)NC2=O)C3=O)n1 (centres unmarked) [Compound 27, 3-(4-((2-(methyl(phenyl)amino)pyrimidin-4-yl)amino)-1-oxoisoindolin-2-yl)piperidine-2,6-dione]"
15,8.14 µM,"O=C1CCC(N2Cc3c(Nc4ccnc(N5CCC[C@H]5CO)n4)cccc3C2=O)C(=O)N1 (stereo partly drawn) [Compound 29, 3-(4-((2-((S)-2-(hydroxymethyl)pyrrolidin-1-yl)pyrimidin-4-yl)amino)-1-oxoisoindolin-2-yl)piperidine-2,6-dione]"
16,2.31 µM,"O=C1CCC(N2Cc3c(Nc4ccnc(Nc5ccccc5F)n4)cccc3C2=O)C(=O)N1 (centres unmarked) [Compound 21, 3-(4-((2-((2-fluorophenyl)amino)pyrimidin-4-yl)amino)-1-oxoisoindolin-2-yl)piperidine-2,6-dione]"
17,1.35 µM,"O=C1CCC(N2Cc3c(Nc4ccnc(Nc5ccc6c(c5)CCC6)n4)cccc3C2=O)C(=O)N1 (centres unmarked) [Compound 24, 3-(4-((2-((2,3-dihydro-1H-inden-5-yl)amino)pyrimidin-4-yl)amino)-1-oxoisoindolin-2-yl)piperidine-2,6-dione]"
18,4.16 µM,"COc1cccc(-c2nccc(Nc3cccc4c3CN(C3CCC(=O)NC3=O)C4=O)n2)c1 (centres unmarked) [Compound 32, 3-(4-((2-(3-methoxyphenyl)pyrimidin-4-yl)amino)-1-oxoisoindolin-2-yl)piperidine-2,6-dione]"
19,27.1 µM,"COc1ccccc1-c1nc(Nc2cccc3c2CN(C2CCC(=O)NC2=O)C3=O)c2nc[nH]c2n1 (centres unmarked) [Compound 47, 3-(4-((2-(2-methoxyphenyl)-9H-purin-6-yl)amino)-1-oxoisoindolin-2-yl)piperidine-2,6-dione]"
20,0.665 µM,"CC(C)n1cnc2c(Nc3cccc4c3CN(C3CCC(=O)NC3=O)C4=O)nc(Nc3ccc4c(c3)CCC4)nc21 (centres unmarked) [Compound 53, 3-(4-((2-((2,3-dihydro-1H-inden-5-yl)amino)-9-isopropyl-9H-purin-6-yl)amino)-1-oxoisoindolin-2-yl)piperidine-2,6-dione]"
21,2.69 µM,"COc1ccc(Nc2nccc(Nc3cccc4c3CN(C3CCC(=O)NC3=O)C4=O)n2)cc1 (centres unmarked) [Compound 18, 3-(4-((2-((4-methoxyphenyl)amino)pyrimidin-4-yl)amino)-1-oxoisoindolin-2-yl)piperidine-2,6-dione]"
22,0.913 µM,"O=C1CCC(N2Cc3c(Nc4ccnc(NC56CC7CC(CC(C7)C5)C6)n4)cccc3C2=O)C(=O)N1 (centres unmarked) [Compound 44, 3-(4-((2-(((3s,5s,7s)-adamantan-1-yl)amino)pyrimidin-4-yl)amino)-1-oxoisoindolin-2-yl)piperidine-2,6-dione]"
23,8.29 µM,"O=C1CCC(N2Cc3c(Nc4nc(-c5ccc(F)cc5)nc5[nH]cnc45)cccc3C2=O)C(=O)N1 (centres unmarked) [Compound 50, 3-(4-((2-(4-fluorophenyl)-9H-purin-6-yl)amino)-1-oxoisoindolin-2-yl)piperidine-2,6-dione]"
24,25.3 µM,"O=C1CCC(N2Cc3c(Nc4ccnc(Nc5ccc6c(c5)CCN6)n4)cccc3C2=O)C(=O)N1 (centres unmarked) [Compound 43, 3-(4-((2-(indolin-5-ylamino)pyrimidin-4-yl)amino)-1-oxoisoindolin-2-yl)piperidine-2,6-dione]"
25,2.6 µM,"COc1ccccc1Nc1nccc(Nc2cccc3c2CN(C2CCC(=O)NC2=O)C3=O)n1 (centres unmarked) [Compound 38, 3-(4-((2-((2-methoxyphenyl)amino)pyrimidin-4-yl)amino)-1-oxoisoindolin-2-yl)piperidine-2,6-dione]"

# Same assay, conditions: unit printed as 'M' in the text (Table 1 gives μM); 100 nM dBET6, 5 hours; read-out: Cellular CRBN engagement EC50
row,EC50,SMILES
1,0.66 µM,"O=C1CCC(N2Cc3c(Nc4ccnc(N5CCN(c6cccc(C(F)(F)F)c6)CC5)n4)cccc3C2=O)C(=O)N1 (centres unmarked) [Compound 23, 3-(1-oxo-4-((2-(4-(3-(trifluoromethyl)phenyl)piperazin-1-yl)pyrimidin-4-yl)amino)isoindolin-2-yl)piperidine-2,6-dione]"
2,0.67 µM,"CCN(Cc1ccccc1)c1nccc(Nc2cccc3c2CN(C2CCC(=O)NC2=O)C3=O)n1 (centres unmarked) [Compound 26, 3-(4-((2-(benzyl(ethyl)amino)pyrimidin-4-yl)amino)-1-oxoisoindolin-2-yl)piperidine-2,6-dione]"
3,0.46 µM,"O=C1CCC(N2Cc3c(Nc4ccnc(Nc5ccc6c(c5)CCCC6)n4)cccc3C2=O)C(=O)N1 (centres unmarked) [Compound 52, 3-(1-oxo-4-((2-((5,6,7,8-tetrahydronaphthalen-2-yl)amino)pyrimidin-4-yl)amino)isoindolin-2-yl)piperidine-2,6-dione]"
4,0.742 µM,"O=C1CCC(N2Cc3c(Nc4ccnc(-c5ccc(F)cc5)n4)cccc3C2=O)C(=O)N1 (centres unmarked) [Compound 39, 3-(4-((2-(4-fluorophenyl)pyrimidin-4-yl)amino)-1-oxoisoindolin-2-yl)piperidine-2,6-dione]"
